According to BigSolDB 2.1:

CC(=O)N1CN(C(C)=O)CN(C(C)=O)C1
solubility (mole fraction)
Settings | 298 K | 303 K | 308 K | 313 K | 318 K
in acetonitrile | 0.0478 | 0.0695 | 0.102 | 0.142 | 0.202
in ethyl acetate | 0.0153 | 0.0178 | 0.0198 | 0.0236 | 0.0271
in methanol | 0.204 | 0.238 | 0.283 | 0.335 | 0.395
in water | 0.00434 | 0.00612 | 0.0085 | 0.0125 | 0.018
